Results published in patent US20030203975A1, “Anti-cancer agents” (priority 1998, published 2003).
Structures can show the parent of a compound that is named as a salt.

How the values were obtained:
[1] = tested on: MAC 15A adenocarcinoma of the colon; assay: In vitro chemosensitivity against MAC 15A adenocarcinoma (MTT assay); type: cell-based; conditions: Mus musculus, MAC15A, 96 hours continuous exposure
Method: In Vitro Activity Against MAC 15A Adenocarcinoma.
MAC 15A cells were grown in RPMI 1640 medium supplemented with 10% foetal calf serum containing a 1% antibiotic mixture under standard tissue culture conditions and were maintained at 37° C. in a humidified atmosphere of 5% CO2 in air. Cells were harvested from a stock culture in exponential growth phase and plated in 96-well flat-bottomed plates to achieve a final density of 2×10^3 cells per well. After 2 hours incubation medium was replaced with either fresh medium containing 0.5% DMSO (control) or medium containing test compound dissolved in DMSO at a concentrations from 10 mM to 1 nM. Chemosensitivity was assessed using MTT assay by the method of Plumb et al Cancer Research 49 (1989) 4435-4440.
Following 96 hours continuous exposure to drug at 37° C. cells were incubated with fresh drug-free medium immediately prior to addition of MTT solution (5 mg/ml). Medium and MTT were removed after 4 hours and 150 μl of DMSO was added. For each plate the absorbance of the resulting solution was measured at the analytical wavelength 550 nm for formazan product, using a Labsystem Mutiskan. IC50 values were obtained from growth curves of drug concentration against % survival and are expressed in μm.

[2] = tested on: DNA: Calf thymus sodium salt; assay: DNA binding assay, Hoechst dye displacement; design: key: NB = Not binding; conditions: concentration required to displace 50% of the Hoescht Dye; 20 μM DNA, 2 μM dye
Method: (§1) The propensity of selected compounds to bind to DNA in the absence of topos was measured in order to identify compounds that would bind weakly, or not at all. […] A […] was used determine binding constants of the compound to DNA by displacement of either ethidium bromide (an intercalator) or Hoechst dye 33258 (a groove binder) which form a DNA-bound fluorescent complex measured by fluorescence spectroscopy.
(§2) DNA Binding Assay Protocol
(§3) In order to detect the strength and mode of anthraquinone compound binding to DNA the displacement of known DNA binders was detected by measuring the fluorescence of a DNA/fluorescent compound complex. The addition of known concentrations of ethidium bromide, an interchelator, and Hoescht Dye, a groove binder, cause a fluorescent DNA/binder complex that can be detected and the fluorescence quantified. The addition of anthraquinone compounds displaces the interchelators or groove binders, depending on the compound mode of DNA binding, and therefore reduces the fluorescence accordingly. The preferred binding action of compounds can be quantified by determining the reduction in fluorescence resulting from a given concentration of compound. The quantification of a compounds ability to bind to DNA is expressed, as the concentration required to displace 50% of the ethidium bromide or Hoescht Dye, thus reducing the fluorescence by 50%. Therefore, the values produced are QE50 for ethidium, bromide, or QH50 for Hoescht Dye.
(§4) Compound: 300, 60, 10 and 10/6gM (1.66 μM) solution concentrations were prepared for use in the assay to produce a range of compound. Concentrations. 100, 200 and 300 μl of each dilution were used in the assay reaction. This provides a range of concentrations: −30, 20, 10, 6, 4, 2, 1, 0.67, 0.33, 0.17, 0.11, 0.06, 0.00 μM in the assay environment. Intermediate concentrations can be utilised to enhance the accuracy of the displacement concentration determination.
(§5) Buffer: 100 mM Tris, NaCI 500 mM. DNA: Calf thymus sodium salt. Stock solution of 200 μM was prepared in 10× assay buffer. Dilution of DNA therefore provided the correct concentration of assay buffer in the assay cell.300 μg DNA was used in 3 ml reaction mixture therefore 20 μM DNA concentration. Hoescht Dye 2 μM final concentration, therefore 100 μl of a 60 μM stock solution was added to a 3 ml assay. Ethidium Bromide 2 μM final concentration therefore 100 μl of a 60 μM stock solution was added to a 3 ml assay. Distilled H2O Water was added to produce 3 ml reaction volume. Order of addition: 1. DNA, 2. Water, 3. Drug, 4. Dye
(§6) The assay was completed with both Hoescht Dye and Ethidium. Bromide for each compound. The ethidium bromide is a DNA inter-chelator, Hoescht Dye is a minor groove binder. 100, 200 and […] of the lowest compound dilution was assayed. This procedure was repeated with all further dilution's. This provided a curve of fluorescence intensity decrease with increasing compound concentration. QE50 and QH50 values were determined by extrapolating the concentration of compound at the point where the fluorescence intensity was reduced by 50%. Controls involving compound only and ethidium. bromide or Hoechst Dye without compound were carried out for each experiment. Two readings for each concentration of compound were performed per experiment, each experiment was repeated at least three times. Fluorometer: Perkin Elmer Luminescence Spectrometer LS 50B.

[3] = tested on: DNA: Calf thymus sodium salt; assay: DNA binding assay, ethidium bromide displacement; design: key: NB = Not binding; conditions: concentration required to displace 50% of the ethidium bromide; 20 μM DNA, 2 μM dye
Method: as §1, §2, §3, §4, §5, §6

| Compound | melting point [°C] | IC50 [1] [µM] | QH50 Minor groove binding [2] | QE50 Intercalating [3] | IC50 ([1]; 96 h) [µM] |
| --- | --- | --- | --- | --- | --- |
| CC(C)C[C@H](NC(=O)OC(C)(C)C)C(=O)NCC(=O)OCCCNc1cccc2c1C(=O)c1ccccc1C2=O | 86 | – | – | – | – |
| CC(C)(C)OC(=O)N[C@H](Cc1ccccc1)C(=O)OCCCNc1cccc2c1C(=O)c1ccccc1C2=O | 168 | – | – | – | – |
| CC(C)(C)OC(=O)N1CCC[C@@H]1C(=O)OCCCNc1cccc2c1C(=O)c1ccccc1C2=O | 120 | – | – | – | – |
| C[C@@H](C(=O)OCCCCNc1cccc2c1C(=O)c1ccccc1C2=O)N(C)C(=O)OC(C)(C)C | 62 | – | – | – | – |
| NCC(=O)OCCCCNc1cccc2c1C(=O)c1ccccc1C2=O (as salt: trifluoroacetate) [Example 81, 1-[4-(glycyloxy)butylamino]anthracene-9,10-dione trifluoroacetate] | 154 | – | – | – | – |
| C[C@H](N)C(=O)OCCCNc1cccc2c1C(=O)c1ccccc1C2=O.O=C(O)C(F)(F)F [Example 29, 1-[3-(L-alanyloxy)propylamino]anthracene-9,10-dione trifluoroacetate] | 126 | 9.7 | NB | NB | – |
| N[C@@H](Cc1ccccc1)C(=O)OCCNc1cccc2c1C(=O)c1ccccc1C2=O.O=C(O)C(F)(F)F [Example 33, 1-[2-(L-phenylalanyloxy)ethylamino]anthracene-9,10-dione trifluoro-acetate] | – | – | NB | NB | – |
| C[C@H](NC(=O)OC(C)(C)C)C(=O)OCCCCNc1cccc2c1C(=O)c1ccccc1C2=O [Example 42, 1-[4-(N-tertiarybutoxycarbonyl-L-alanyloxy)butylamino] anthracene-9,10-dione] | 102 | – | – | – | – |
| C[C@@H](NC(=O)OC(C)(C)C)C(=O)OCCCCNc1cccc2c1C(=O)c1ccccc1C2=O [Example 44, 1-[4-(N-tertiarybutoxycarbonyl-D-alanyloxy)butylamino] anthracene-9,10-dione] | 100 | – | – | – | – |
| CC(C)[C@H](N)C(=O)OCCCCNc1ccc(O)c2c1C(=O)c1ccccc1C2=O.O=C(O)C(F)(F)F [Example 53, 4-hydroxy-1-[4-(L-valyloxy)butylamino]anthracene-9,10-dione tri-fluoroacetate] | – | – | 4.4 µM | 2.9 µM | 5.3 |
| CC(C)(C)OC(=O)NCC(=O)OCCNc1cccc2c1C(=O)c1ccccc1C2=O [Example 58, 1-[2-(N-tertiarybutoxycarbonylglycyloxy)ethylamino]anthracene-9,10-dione] | 122 | – | – | – | – |
| NCC(=O)OCCNc1cccc2c1C(=O)c1ccccc1C2=O.O=C(O)C(F)(F)F [Example 59, 1-[2-(glycyloxy)ethylamino]anthracene-9,10-dione trifluoroacetate] | 180 | 3.5 | – | – | – |
| NCC(=O)OCCCNc1cccc2c1C(=O)c1ccccc1C2=O.O=C(O)C(F)(F)F [Example 61, 1-[3-(glycyloxy)propylamino]anthracene-9,10-dione trifluoroacetate] | 198 | 10.6 | – | – | – |
| C[C@@H](N)C(=O)OCCCNc1cccc2c1C(=O)c1ccccc1C2=O.O=C(O)C(F)(F)F [Example 63, 1-[3-(D-alanyloxy)propylamino]anthracene-9,10-dione trifluoroacetate] | 134 | 6.9 | NB | NB | – |
| N[C@H](Cc1ccccc1)C(=O)OCCCNc1cccc2c1C(=O)c1ccccc1C2=O.O=C(O)C(F)(F)F [Example 65, 1-[3-(D-phenylalanyloxy)propylamino]anthracene-9,10-dione trifluoro-acetate] | 102 | 4.8 | – | – | – |
| CC(C)(C)OC(=O)NCC(=O)OCCCCNc1cccc2c1C(=O)c1ccccc1C2=O [Example 80, 1-[4-(N-tertiarybutoxycarbonylglycyloxy)butylamino]anthracene-9,10-dione] | 70 | – | – | – | – |
| CN(CC(=O)OCCCCNc1cccc2c1C(=O)c1ccccc1C2=O)C(=O)OC(C)(C)C [Example 82, 1-[4-(N-tertiarybutoxycarbonylsarcosyloxy)butylamino]anthracene-9,10-dione] | 90 | – | – | – | – |
| CNCC(=O)OCCCCNc1cccc2c1C(=O)c1ccccc1C2=O.O=C(O)C(F)(F)F [Example 83, 1-[4-(sarcosyloxy)butylamino]anthracene-9,10-dione trifluoroacetate] | 132 | 7.2 | – | – | – |
| CC[C@H](N)C(=O)OCCCCNc1cccc2c1C(=O)c1ccccc1C2=O.O=C(O)C(F)(F)F [Example 87, (S)-1-[4-(2-aminobutanoyloxy)butylamino]-anthracene-9,10-dione trifluoroacetate] | 118 | 3 | – | – | – |
| CN[C@@H](C)C(=O)OCCCCNc1cccc2c1C(=O)c1ccccc1C2=O.O=C(O)C(F)(F)F [Example 91, 1-[4-(N-methyl-L-alanyloxy)butylamino]anthracene-9,10-dione tri-fluoroacetate] | 84 | – | – | – | 4.8 |
| NCC(=O)OCCCNc1ccc(O)c2c1C(=O)c1ccccc1C2=O.O=C(O)C(F)(F)F [Example 123, 4-hydroxy-1-[3-(glycyloxy)propylamino]anthracene-9,10-dione tri-fluoroacetate] | 188 | – | – | – | 0.3 |
| NCC(=O)OCCCNc1ccc(O)c2c1C(=O)c1c(O)cccc1C2=O.O=C(O)C(F)(F)F [Example 127, 4,8-dihydroxy-1-[3-(glycyloxy)propylamino]anthracene-9,10-dione trifluoroacetate] | 196 | 1.3 | – | – | – |
| NCC(=O)N1CCC[C@H]1C(=O)OCCCNc1cccc2c1C(=O)c1ccccc1C2=O.O=C(O)C(F)(F)F [Example 131, 1-[3-(glycyl-L-prolyloxy)propylamino]anthracene-9,10-dione tri-fluoroacetate] | 146 | – | – | – | 2.5 |
| CC(C)C[C@H](N)C(=O)NCC(=O)OCCCNc1cccc2c1C(=O)c1ccccc1C2=O.O=C(O)C(F)(F)F [Example 133, 1-[3-(L-leucylglycyloxy)propylamino]anthracene-9,10-dione trifluoroacetate] | 100 | 1.2 | – | – | – |
| O=C(O)C(F)(F)F.O=C1c2ccccc2C(=O)c2c(NCCOC(=O)[C@@H]3CCCN3)cccc21 [Example 137, 1-[2-(prolyloxy)ethylamino]anthracene-9,10-dione trifluoroacetate] | – | 33.5 | NB | NB | – |
| O=C1c2c(O)ccc(O)c2C(=O)c2c(NCCNCCO)ccc(NCCNCCO)c21 [Mitoxantrone, reference compound] | – | – | 1.2 ± 0.3 µM | 0.8 ± 0.3 µM | – |
